The subject of assay [1] is epimastigotes of T. cruzi (CL strain, clone B5). The arrangement: method as in PMID 31210760. Particulars: read-out: IC50 against epimastigotes of T. cruzi (earlier study); cited from earlier work.
In assay [2] the test system is trypomastigotes/amastigotes of T. cruzi (CLB strain). Briefly: Trypomastigote/amastigote susceptibility assay in infected L-929 fibroblasts. Format: cell-based, Trypanosoma cruzi. The following applies: for IC50: CLB strain, 96 h treatment, read-out: IC50 (µM) trypomastigote/amastigote growth inhibition. The protocol: This assay was performed in 96-well microplates. Briefly, 4 × 10^3 L-929 fibroblasts were seeded in 80 µl of MEM containing 10% FBS and antibiotics. The plate was placed overnight at 37 °C in a 5% CO2 humidified incubator to allow cell adherence. Afterward, the cells were infected with 20 µL of trypomastigotes (40,000 trypomastigotes/well (4000 mammalian cells)) diluted in the same medium. The cell:parasite ratio was 1:10. Plates were incubated for 2 h at 33 °C and 5% CO2. The medium was then discarded to dispose of nonpenetrated parasites and replaced with 200 µL of MEM without phenol red supplemented with FBS and antibiotics. After 48 h of incubation, the content of the wells was replaced with a fresh medium containing the dilutions of the compounds. The plates were returned to the incubator for an additional 96 h under the same conditions. Wells containing drug blanks, medium, fibroblasts, and untreated infected cells were included in all the plates as controls. An internal control of the reference drug (benznidazole) was also included. Next, 50 µl of substrate CPRG (diluted in 3% Triton X-100 solution) were added at a final concentration of 400 µM. After 18–20 h of incubation at 37 °C, absorbance readings were taken at 595 nm using a scanning multiwell spectrophotometer. All the assays were performed in triplicate and the experiments were run three times in different weeks. The results are expressed as the percentage of trypomastigote/amastigote growth inhibition (% T/A GI value) as follows:(2) %Trypomastigote/Amastigote growth inhibition=100−(AE−AEB)/(AC−ACB) ×100 where AE is the absorbance of the experimental group, AEB the absorbance of the compound blank, AC the absorbance of the control group, and ACB the absorbance of the culture medium blank. The IC50 values (the drug concentration that eliminates 50% of the parasites) were determined for each compound using the GraphPad Prism software.

The conditions of assay [3]: POPC vesicles, external nitrate; ref 1 (Hernando et al., Sci. Rep., 2018); read-out: EC50 (µM) NO3–/Cl–; cited from earlier work.
A further assay concerns Trypanosoma brucei. Set-up: method as in PMID 32196500. The following applies: read-out: IC50 against Trypanosoma brucei; cited from earlier work.
The subject of another assay is Giardia. Set-up: method as in PMID 32196500. The following applies: read-out: IC50 against Giardia; cited from earlier work.
The next assay deals with Entamoeba. Set-up: method as in PMID 32196500. Particulars: read-out: IC50 against Entamoeba; cited from earlier work.
The mark [4] stands for this setting: IC50 for L-929 fibroblasts / IC50 for T. cruzi trypomastigotes/amastigotes.
Where [5] appears, read: Trypanosoma cruzi, L929, highest concentration assayed (16 µM), n = 9, read-out: % Trypomastigote/Amastigote Growth Inhibition (%T/A GI ± SD).

Read-outs that look alike come from different tables or passages of the source.

For the molecule `O=C(Cn1ccnc1[N+](=O)[O-])NCc1ccccc1` [Benznidazole, reference compound], the IC50 in assay [1] is 18 µM; in assay [2] (Trypanosoma cruzi, L929), 1.76 ± 0.34 µM. Also, in assay [2] (setting [4]), the “Selectivity index (SI), Trypomastigotes” value turned out to be 779.71. In addition, in assay [2] (setting [5]), the inhibition at 16 µM worked out at 76 ± 5.02%.

For `CCc1c(-c2ccc[nH]2)[nH]c(/C=N/C2CCCCC2)c1C` [MM3], the EC50 in assay [3] was 0.035 µM. Moreover, the “Selectivity index (SI), Trypomastigotes” value in assay [2] (setting [4]) is reported as 6.42. Besides, the IC50 in assay [2] (Trypanosoma cruzi, L929) is 1.9 ± 0.45 µM. Further, the inhibition at 16 µM in assay [2] (setting [5]) is 97.1 ± 3.01%.

Turning to `CCCCCC1=C/C(=C/c2[nH]c(-c3ccc[nH]3)cc2OC)N=C1C` [Natural prodigiosin, prodigiosin], in assay [2] (setting [4]), the “Selectivity index (SI), Trypomastigotes” value turned out to be 50. The “% Trypomastigote/Amastigote Growth Inhibition (%T/A GI ± SD)” value in assay [2] (highest concentration assayed (16 µM), n = 9) is reported as 100 ± 0%. Also, in assay [2], the IC50 was found to be 0.1 ± 0.04 µM.

Take `COC1=CC(c2cc3ccccc3[nH]2)=N/C1=C\c1[nH]c(C)cc1C` [Obatoclax, reference compound]: the IC50 in the assay with Trypanosoma brucei was 0.04 µM; in assay [2] (Trypanosoma cruzi, L929), 2.6 ± 0.4 µM; in the assay with Giardia, 0.9 µM; in the assay with Entamoeba, 0.5 µM. The “Selectivity index (SI), Trypomastigotes” value in assay [2] was determined as 2.24. Moreover, in assay [2] (setting [5]), the inhibition at 16 µM is 88.4 ± 6%.

Turning to `CCCCCC1=C/C(=C/c2[nH]c(-c3ccc[nH]3)cc2OC)N=C1C` [Synthetic prodigiosin, prodigiosin], in assay [2] (setting [4]), the “Selectivity index (SI), Trypomastigotes” value is reported as 5.36. In addition, in assay [2] (Trypanosoma cruzi, L929, read-out: % Trypomastigote/Amastigote Growth Inhibition (%T/A GI ± SD)), the inhibition at 16 µM is 100%. In assay [2], the IC50 came out at 0.57 ± 0.19 µM.
